Several values for one entry are separate records, joined by “and”; a condition that tells them apart may be missing. Equal values may be shown once.
Experiments:
[1] = tested on: high cardiovascular risk patients with hypercholesterolemia; test: ODYSSEY COMBO II: safety (TEAEs, adjudicated CV events, laboratory parameters, low LDL-C)
[2] = tested on: high cardiovascular risk patients with hypercholesterolemia; test: ODYSSEY COMBO II: lipid efficacy of alirocumab vs ezetimibe, add-on to maximally tolerated statin; type: in vivo, human; details: for Calculated LDL-C percent change from baseline, LS mean (SE): ITT population, MMRM, alirocumab 75 Q2W/Up150 Q2W, ezetimibe 10
Text: Each of the COMBO studies was randomized, double-blinded, and placebo-controlled.
The primary efficacy endpoint for each study was the difference between treatment arms in the percent change in LDL-C from baseline to Week 24.
Apo, apolipoprotein; HDL-C, high-density lipoprotein cholesterol; ITT, intent-to-treat; LDL-C, low-density lipoprotein cholesterol; Lp(a), lipoprotein (a); TG, triglycerides.
COMBO II was a Phase 3, randomized, double-blind, active-controlled, parallel-group, multinational 104-week study. The study enrolled high-risk patients with uncontrolled hypercholesterolemia on stable, maximally tolerated daily statin therapy. Unlike COMBO I, with a placebo arm, COMBO II incorporated an active-treatment arm (ezetimibe) with double-dummy design (FIG. 1B) and patients were not allowed to receive any other lipid lowering therapies besides statin and their randomized treatment.
After randomization, patients entered a double-blind, double-dummy treatment period of 104 weeks.
Primary analyses of efficacy endpoints were conducted using an ITT approach (based on the ITT population defined above), including all lipid data, regardless of whether the patient was continuing therapy or not. This corresponds to ITT estimands, defined for primary and key secondary endpoints. In addition, analyses were also conducted using an on-treatment approach (based on the mITT population defined above), including lipid data collected during the efficacy treatment period. This corresponds to on-treatment estimands of key secondary endpoints.
With regards to the primary efficacy analysis (ITT approach), the percent change in calculated LDL-C from baseline to Week 24 was analyzed using a mixed-effect model with repeated measures (MMRM) approach.

[3] = tested on: high cardiovascular risk patients with hypercholesterolemia; details: in vivo
Protocol: Safety parameters (adverse events [including adjudicated cardiovascular events], laboratory data, vital signs, and ECG) were assessed throughout the study.
Safety endpoints assessed in this trial were: cardiovascular events; allergic events; local tolerability at injection site; other adverse events (including hemolytic anemia); laboratory tests: urinalysis, hematology (red blood cell count, red blood cell distribution width (RDW), reticulocyte count, hemoglobin, hematocrit, platelets, white blood cell count with differential blood count), standard chemistry (sodium, potassium, chloride, bicarbonate, calcium, phosphorous, urea nitrogen, creatinine, uric acid, total protein, albumin, LDH, γ Glutamyl Transferase [γGT]), Vitamin E (alpha tocopherol) and other Fat Soluble Vitamins, cortisol (and reflexive ACTH levels, as needed, followed by ACTH stimulation test, as needed), Gonadal Hormone Assessments, Hepatitis C antibody, liver panel (ALT, AST, ALP, and total bilirubin), and CPK; vital signs including heart rate and blood pressure; and 12-lead ECG.
The safety population included all randomized patients who received at least one dose or part of a dose of the double-blind IMP.
Safety analyses were descriptive, performed on the safety population according to treatment actually received. The safety analysis focused on the TEAE period defined as the time from the first dose of double-blind injection up to 70 days after the last double-blind injection. TEAE which developed, worsened or became serious or PCSA occurring after the patient's first injection in the open-label extension study (LTS13643) were not considered in the TEAE period. TEAE period was truncated at the common study cut-off date.

[4] = safety population at 52 weeks, all patients, number (%) of patients
[5] = treatment period, safety population
[6] = ITT, Week 24, listed as alirocumab

Substance: Alirocumab: human anti-PCSK9 antibody; HCVR SEQ ID NO:1, LCVR SEQ ID NO:6; CDRs SEQ ID NOs 2/3/4/7/8/10
- TEAE system organ class: Nervous system disorders [1, 4]: 77 (16.1)
- TEAE system organ class: Psychiatric disorders [1, 4]: 21 (4.4)
- TEAE system organ class: Renal and urinary disorders [1, 4]: 21 (4.4)
- TEAE system organ class: Reproductive system and breast disorders [1, 4]: 12 (2.7)
- TEAE system organ class: Respiratory, thoracic, and mediastinal disorders [1, 4]: 45 (9.4)
- TEAE system organ class: Skin and subcutaneous tissue disorders [1, 4]: 35 (7.3)
- TEAE system organ class: Vascular disorders [1, 4]: 33 (6.9)
- Patients with 2 consecutive calculated LDL-C value <15 mg/dL [1, 5]: (6.7%)
- Patients with 2 consecutive calculated LDL-C value <25 mg/dL [1, 5]: (22.8%)
- Patients with 2 consecutive calculated LDL-C value <25 mg/dL ([1]; treatment period, safety population, listed as alirocumab): 22.8%
- Achieved LDL-C, median ([2]; 24 weeks, FIG. 7): 40 mg/dL
- Patients with automatic up-titration at Week 12 from 75 mg Q2W to 150 mg Q2W (Week 8 LDL-C ≧70 mg/dL) ([2]; 82 of 446 patients with at least one injection after Week 12): 18.4% and 18%
- Calculated LDL-C percent change, LS mean difference (SE) vs ezetimibe ([2]; ITT, Week 24): −29.8 (2.3) %
- Calculated LDL-C, LS mean (SE) percent change from baseline ([2]; ITT, Week 24): −50.6 (1.4) %
- Fasting TGs, LS mean percent change from baseline ([2]; ITT, Week 24): −13.0%
- Calculated LDL-C percent change, LS mean difference (SE) vs ezetimibe [2, 6]: −29.8%
- Calculated LDL-C, LS mean (SE) percent change from baseline [2, 6]: −50.6%
- Fasting TGs percent change, LS mean difference vs ezetimibe ([2]; ITT, Week 24, p=0.9117): −0.3%
- Calculated LDL-C, LS mean percent change from baseline ([2]; ITT, Week 52, listed as alirocumab): −49.5% and −50%
- Apolipoprotein A-1, LS mean difference vs. ezetimibe ([2]; ITT, time point not given): vs. ezetimibe of 6.3%
- Apolipoprotein A-1, LS mean vs. baseline ([2]; ITT, time point not given): vs. baseline of +5.0
- Calculated LDL-C percent change, LS mean difference vs ezetimibe ([2]; On-treatment, Week 24): −30.6%
- Calculated LDL-C percent change from baseline, LS mean (SE) ([2]; Week 4): −54.7 (1.1) %
- Calculated LDL-C percent change from baseline, LS mean (SE) ([2]; Week 8): −54.3 (1.2) %
- Apo-B - Percent change from baseline to Week 12, LS mean difference vs. ezetimibe ([2]; Week 12, ITT): vs. ezetimibe of −22.5%
- Apo-B - Percent change from baseline to Week 12, LS mean vs. baseline ([2]; Week 12, ITT): vs. baseline of −39.7
- Calculated LDL-C - Percent change from baseline to Week 12, LS mean difference vs. ezetimibe ([2]; Week 12, ITT): vs. ezetimibe of −29.4%
- Non-HDL-C - Percent change from baseline to Week 12, LS mean difference vs. ezetimibe ([2]; Week 12, ITT): vs. ezetimibe of −22%
- Non-HDL-C - Percent change from baseline to Week 12, LS mean vs. baseline ([2]; Week 12, ITT): vs. baseline of −42.6
- Total-C - Percent change from baseline to Week 12, LS mean difference vs. ezetimibe ([2]; Week 12, ITT): vs. ezetimibe of −14.3%
- Total-C - Percent change from baseline to Week 12, LS mean vs. baseline ([2]; Week 12, ITT): vs. baseline of −29.4
- Calculated LDL-C - Percent change from baseline to Week 12, LS mean difference vs. ezetimibe ([2]; Week 12, On-treatment analysis): vs. ezetimibe of −29.7%
- Calculated LDL-C percent change from baseline, LS mean (SE) ([2]; Week 16): −56.4 (1.3) %
- Apo B reduction compared with ezetimibe ([2]; Week 24): 22.4%
- Fasting TGs reduced from baseline ([2]; Week 24): 13.5%
- HDL-C increase compared with ezetimibe ([2]; Week 24): 8.1%
- Lp(a) reduction compared with ezetimibe ([2]; Week 24): 21.7%
- Mean achieved LDL-C ([2]; Week 24): 51.6 (1.4) mg/dL
- Non-HDL-C reduction compared with ezetimibe ([2]; Week 24): 22.9%
- Apo-B - Percent change from baseline to Week 24, LS mean vs. baseline ([2]; Week 24, ITT): vs. baseline of −40.7
- HDL-C - Percent change from baseline to Week 24, LS mean difference vs. ezetimibe ([2]; Week 24, ITT): vs. ezetimibe of 8.1%
- HDL-C - Percent change from baseline to Week 24, LS mean vs. baseline ([2]; Week 24, ITT): vs. baseline of- +8.6
- Lp(a) - Percent change from baseline to Week 24, combined estimate for adjusted mean difference vs. ezetimibe ([2]; Week 24, ITT): ezetimibe of −21.7%
- Lp(a) - Percent change from baseline to Week 24, mean vs. baseline ([2]; Week 24, ITT): vs. baseline of −27.8
- Non-HDL-C - Percent change from baseline to Week 24, LS mean difference vs. ezetimibe ([2]; Week 24, ITT): vs. ezetimibe of−22.9%
- Non-HDL-C - Percent change from baseline to Week 24, LS mean vs. baseline ([2]; Week 24, ITT): vs. baseline of −42.1
- Total-C - Percent change from baseline to Week 24, LS mean difference vs. ezetimibe ([2]; Week 24, ITT): vs. ezetimibe of −14.7%
- Calculated LDL-C percent change from baseline, LS mean (SE) ([2]; Week 24): −50.6 (1.4) %
- Fasting TGs - Percent change from baseline to Week 24, combined estimate for adjusted mean difference vs. ezetimibe ([2]; Week 24, ITT, not statistically significant (p 0.9117)): ezetimibe of −0.3%
- HDL-C percent change from baseline to week 24 ([2]; Week 24, on-treatment analysis): 9.0 (0.8)
- HDL-C percent change from baseline to week 24, LS mean difference (SE) alirocumab vs ezetimibe ([2]; Week 24, on-treatment analysis): 8.2 (1.4) %
- Lipoprotein(a) percent change from baseline to week 24 ([2]; Week 24, on-treatment analysis): −28.1 (1.4)
- Lipoprotein(a) percent change from baseline to week 24, LS mean difference (SE) alirocumab vs ezetimibe ([2]; Week 24, on-treatment analysis): −22.5 (2.4) %
- Total cholesterol percent change from baseline to week 24 ([2]; Week 24, on-treatment analysis): −30.4 (0.9)
- Total cholesterol percent change from baseline to week 24, LS mean difference (SE) alirocumab vs ezetimibe ([2]; Week 24, on-treatment analysis): −15.1 (1.5) %
- Triglycerides (fasted) percent change from baseline to week 24 ([2]; Week 24, on-treatment analysis): −13.5 (1.4)
- Triglycerides (fasted) percent change from baseline to week 24, LS mean difference (SE) alirocumab vs ezetimibe ([2]; Week 24, on-treatment analysis): −0.2 (2.5) %
- Calculated LDL-C percent change from baseline, LS mean (SE) ([2]; Week 36): −51.2 (1.4) %
- Calculated LDL-C - Percent change from baseline to Week 52, LS mean difference vs. ezetimibe ([2]; Week 52, ITT): vs. ezetimibe of −31.2%
- Absolute reduction in LDL-C ([2]; by week 24, dose-increased group): 63.5 mg/dL
- Absolute reduction in LDL-C ([2]; by week 24, remainder of the alirocumab group): 56.9 mg/dL
- Patients who did not require uptitration to alirocumab 150 mg Q2W ([2]; in vivo): approximately 80%
- Additional LDL-C reduction after dose increase at 12 weeks ([2]; patients with dose increased to 150 mg SC Q2W): 12.4%
- TEAE Lower respiratory tract infection (LRTI), % of patients [3]: 3.0% (46)
- TEAE Upper respiratory tract infection (URTI), % of patients [3]: 7.0% (109)
- TEAE Urinary tract infection, % of patients [3]: 5.2% (81)
- TEAEs by System-Organ-Class: Infections and infestations, % of patients [3]: 45.5% (705)
